pIC50: −log10 of the molar value. Bounds are passed on as bounds.

The target of this assay is T1, RORC2 ligand binding domain (6-His-RORC2 LBD) (Homo sapiens, UniProt P51449).
T1 construct: made in house; host or cells: E. coli
T1 sequence (P51449 269-508 limits assumed): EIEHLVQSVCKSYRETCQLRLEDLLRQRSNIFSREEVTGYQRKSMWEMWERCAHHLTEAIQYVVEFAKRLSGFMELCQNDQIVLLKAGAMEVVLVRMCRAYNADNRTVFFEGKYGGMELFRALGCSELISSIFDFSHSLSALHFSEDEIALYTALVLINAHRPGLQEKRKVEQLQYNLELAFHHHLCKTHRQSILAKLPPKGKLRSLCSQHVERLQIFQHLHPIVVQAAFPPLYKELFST
The experiment in a line: Co-activator recruitment by TR-FRET (RORC2 FRET). The following applies: 6.3 nM RORC2 LBD, 200 nM SRC1-2 coactivator peptide, 3 hours room temperature. The class given is biochemical. From the text: The activity of compound of the invention can be determined by a co-activator recruitment by TR-FRET (time-resolved fluorescence resonance energy transfer) assay. […] Due to the long lasting fluorescence emission of Europium, the non-specific, short-lived fluorescence is time-resolved (TR) from the fluorescence of interest. Inhibitors of the interaction of receptor and coactivator peptide are detected by a decrease in TR-FRET signal.
Specifically, in one embodiment the aforementioned assay was performed as outlined below. The assay was carried out in black polystyrene, 384-well plates in a total assay volume of 50.5 μL. The assay buffer contained 50 mM TRIS-HCL pH 7.5, 1 mM NaCl, 2 mM MgCl2, 0.5 mg/mL bovine serum albumin, and 5 mM dithiothreitol.
Consider `CCCS(=O)(=O)Nc1ccc2c(c1)c(C1CCN(C(=O)C3CCCC3)CC1)cn2C` [Example 73, N-{3-[1-(cyclopentylcarbonyl)piperidin-4-yl]-1-methyl-1H-indol-5-yl}propane-1-sulfonamide], for which the pIC50 is 7.17. For the compound `Cn1cc(C2CCN(C(=O)C3CCCC3)CC2)c2cc(NC(=O)N3CCOC(C#N)C3)ccc21` (centres unmarked) [Example 62, 2-cyano-N-{3-[1-(cyclopentylcarbonyl)piperidin-4-yl]-1-methyl-1H-indol-5-yl}morpholine-4-carboxamide], the pIC50 is 6.37.

`Cn1cnc(S(=O)(=O)Nc2ccc3c(c2)c(C2CCN(C(=O)C4CCCC4)CC2)cn3C)c1` [Example 69, N-{3-[1-(cyclopentylcarbonyl)piperidin-4-yl]-1-methyl-1H-indol-5-yl}-1-methyl-1H-imidazole-4-sulfonamide] showed a pIC50 of 6.57. Next, `Cn1cc(C2CCN(C(=O)C3CCC(F)(F)C3)CC2)c2cc(NC(=O)c3cc(C#N)ccn3)ccc21` (centres unmarked) [Example 8, 4-cyano-N-(3-{1-[(3,3-difluorocyclopentyl)carbonyl]piperidin-4-yl}-1-methyl-1H-indol-5-yl)pyridine-2-carboxamide]: 8.14; `N#Cc1cccc(C(=O)Nc2ccc3[nH]cc(C4CCN(C(=O)NC5CCCC5)CC4)c3c2)c1` [Example 85, 4-(5-(3-cyanobenzamido)-1H-indol-3-yl)-N-cyclopentylpiperidine-1-carboxamide]: 6.07; `Cn1cc(C2CCN(C(=O)[C@H]3CC[C@H](O)CC3)CC2)c2cc(NC(=O)c3cc(C#N)ccn3)ccc21` [Example 27, 4-cyano-N-(3-{1-[(trans-4-hydroxycyclohexyl)carbonyl]piperidin-4-yl}-1-methyl-1H-indol-5-yl)pyridine-2-carboxamide]: 5.85. For `N#Cc1cccc(C(=O)Nc2ccc3cnn(C4CCN(C(=O)C5CCCC5)CC4)c3c2)c1` [Example 84, 3-cyano-N-(1-(1-(cyclopentanecarbonyl)piperidin-4-yl)-1H-indazol-6-yl)benzamide], the pIC50 was 6.67.

The compound `Cn1cc(C2CCN(C(=O)[C@H]3CCC[C@H]3O)CC2)c2cc(NC(=O)c3cc(C#N)ccn3)ccc21` (relative stereo) [Example 13, 4-cyano-N-[3-(1-{[(1S*,2R*)-2-hydroxycyclopentyl]carbonyl}piperidin-4-yl)-1-methyl-1 2-carboxamide] gave a pIC50 of 7.70. As to `Cn1cc(C2CCN(C(=O)C3CCCC3)CC2)c2cc(NC(=O)N3CC(CC#N)C3)ccc21` [Example 61, 3-(cyanomethyl)-N-{3-[1-(cyclopentylcarbonyl)piperidin-4-yl]-1-methyl-1H-indol-5-yl}azetidine-1-carboxamide], the pIC50 was 6.47. As for `CC[C@H](C)[C@H](O)C(=O)N1CCC(c2cn(C)c3ccc(NC(=O)c4cccc(C#N)c4)cc23)CC1` [Example 3, 3-cyano-N-(3-(1-((2S,3S)-2-hydroxy-3-methylpentanoyl)piperidin-4-yl)-1-methyl-1H-indol-5-yl)benzamide], the pIC50 was 6.41.

`Cn1cc(C2CCN(C(=O)C3CC3(F)F)CC2)c2cc(NC(=O)c3cc(C#N)ccn3)ccc21` (centres unmarked) [Example 32, 4-cyano-N-(3-{1-[(2,2-difluorocyclopropyl)carbonyl]piperidin-4-yl}-1-methyl-1H-indol-5-yl)pyridine-2-carboxamide] showed a pIC50 of 7.45.

In turn, `COc1ccc(C(=O)Nc2ccc3[nH]cc(C4CCN(C(=O)C5CCCC5)CC4)c3c2)nc1` [Example 42, N-{3-[1-(cyclopentylcarbonyl)piperidin-4-yl]-1H-indol-5-yl}-5-methoxypyridine-2-carboxamide] showed a pIC50 of 6.02. `Cn1cc(C2CCN(C(=O)C3CCCC3)CC2)c2cc(NS(=O)(=O)c3cccc(C#N)c3)ccc21` [Example 67, 3-cyano-N-{3-[1-(cyclopentylcarbonyl)piperidin-4-yl]-1-methyl-1H-indol-5-yl}benzenesulfonamide] gave a pIC50 of 7.94.

Compound `NC(=O)c1cccc(C(=O)Nc2ccc3[nH]cc(C4CCN(C(=O)C5CCCC5)CC4)c3c2)c1` [Example 50, N-{3-[1-(cyclopentylcarbonyl)piperidin-4-yl]-1H-indol-5-yl}isophthalamide] gave a pIC50 of 5.85. For the compound `N#Cc1ccnc(C(=O)Nc2ccc3[nH]cc(C4CCN(C(=O)C5CCCC5)CC4)c3c2)c1` [Example 37, 4-cyano-N-(3-(1-(cyclopentanecarbonyl)piperidin-4-yl)-1H-indol-5-yl)picolinamide], the pIC50 was 7.47. The result for `N#Cc1cccc(C(=O)Nc2ccc3[nH]cc(C4CCN(CC5CCCC5)CC4)c3c2)c1` [Example 87, 3-cyano-N-(3-(1-(cyclopentylmethyl)piperidin-4-yl)-1H-indol-5-yl)benzamide] reads < 4.70; that for `O=C(Nc1ccc2[nH]cc(C3CCN(C(=O)C4CCCC4)CC3)c2c1)c1cccc(O)c1` [Example 46, N-{3-[1-(cyclopentylcarbonyl)piperidin-4-yl]-1H-indol-5-yl}-3-hydroxybenzamide], 5.84.

The values are drawn from patent publication US20160046597A1, “RORC2 INHIBITORS AND METHODS OF USE THEREOF” (PFIZER INC., priority 2013, published 2016).
